The values that follow are results of earlier work, collected in patent US8709498B2, “Method of stimulating tissue healing” (priority 2001, dated 2014).

SMILES strings stand for the structures. Like-named read-outs stand apart in the source and are kept apart here.

One series has as its system mouse macrophages. The settings on record: abolished by nitrite excess.
For series [1], the system named is polymorphonuclear neutrophils. As to conditions: HOCl 250 μM.
Series [2] relates to endothelial cells of the human umbilical vein. The settings on record: HOCl 5 nM/1.2×10^5 cells, in vitro; no cell death.
The next series concerns endothelial cells. As to conditions: in vitro, (HOCl)=35 μM.
The subject of another series is human skin fibroblasts. As to conditions: human skin fibroblasts in vitro.
Series [3] deals with polymorphonuclear neutrophils. The settings on record: read-out: IC50, chemiluminescence decrease.
Series [4] relates to human fibroblasts.
The test system of series [5] is macrophages.
The test system of another series is rat RAW264.7 cells. The settings on record: for Km: read-out: Km of take-up.
The next series deals with IL-8. The settings on record: rheumatoid arthritis fibroblast-like synoviocytes.
Series [6] has as its system human synoviocytes-like fibroblastes. The settings on record: (TauCl)=400-500 μM.
In the next series the test system is TNF-α. As to conditions: dose-dependent.
In another series the test system is mouse dendritic cells. The settings on record: incubated 24 hours.
The test system of series [7] is macrophages or macrophage-line cells.
In another series the test system is IL-6. As to conditions: rheumatoid arthritis fibroblast-like synoviocytes.
The next series concerns IL-1α. The settings on record: all stimulation levels.
The subject of series [8] is human fibroblasts. The source holds these as a separate data set.
Series [9] relates to macrophages. The settings on record: (NaOCl)=1.0075 mM, after two hours of contact in vitro.
Series [10] deals with rat macrophage like-cells RAW 264.7.
Experiment in series [11]: not given
This is another data set of the same source.

Series [12] deals with human macrophages, fibroblasts and keratinocytes.

As a reminder, the IC50 is the point on the concentration scale where inhibition reaches its midpoint. On to `OCl` [HOCl, hypochlorous acid], for which, in the series with mouse macrophages, the “HOCl concentration above which cell death increases significantly” value is given as above 0.125 mM. For the same compound, the “effect on hydrogen peroxide production” value in series [1] was “inhibits”. Also, the “effect on cell growth” value in [2] is recorded as “temporary stop of cell growth”. Besides, in the series on endothelial cells, the “HOCl molecules taken up within 15 minutes” value is 100% and the “HOCl molecules taken up within ½ minute” value is given as 50%. Also, in the series on human skin fibroblasts, the “concentration that does not alter viability or induce cytotoxicity or cell apoptose” value is below 50 µM. Besides, the “HOCl concentration above which cell toxicity increases progressively” value in the series with human endothelial cells (exposition time-dependent) is above 25 µM. Further, the “HOCl concentration that is not toxic” value in the series on human endothelial cells (human endothelial cells in vitro) is at most 25 µM. Also, the “HOCl concentration with cell contractions, rounding and loss of adherence” value in the series with human endothelial cells (rounded within 10 minutes, majority lost adherence after three hours) is 50 µM. Moreover, the concentration for half-maximal inhibition (IC50) in [3] is 100 µM. Also, in the series on human fibroblasts [4], the “HOCl molecules taken up within the first 10 minutes” value is around 80%.

On to `O=C(O)[C@H](CO)NCl` [SerCl, Serine N-chloramine], for which the “inhibition of nitric oxide generation” value is 22% in the series on macrophages [5] ((SerCl)=300 μM, after 24 hours) and 85% in the series with macrophages [5] ((SerCl)=300 μM, immediately after its preparation).

For orientation: Km means the substrate concentration at which the rate is half of its maximum. As to `NCCS(=O)(=O)O` [taurine], the “effect on nitric oxide generation” value in the series on macrophages [5] (taurine alone) is listed as “without effect”. For the same compound, the figures for the Vmax of take-up in the series with rat RAW264.7 cells (LPS-stimulated macrophages) and with rat RAW264.7 cells (relaxed rat RAW264.7 cells) were 116.3 pmol/min/10^6 cells and 90.9 pmol/min/10^6 cells, respectively. Moreover, the Michaelis constant (Km) in the series on rat RAW264.7 cells (LPS-stimulated macrophages) is 17.3 µM; in the series with rat RAW264.7 cells (relaxed rat RAW264.7 cells), 28.1 µM.

For the compound `O=S(=O)(O)CCNCl` [TauCl, taurine N-chloramine], the “inhibition of nitric oxide generation” value is given as 8-22% in the series on macrophages [5] (100 µM) and 98% in the series with macrophages [5] (600 µM). Further, the “effect on hydrogen peroxide production” value in series [1] is “no effect”. Further, the “AP-1 DNA-bonding” value in the series with AP-1 ((TauCl)=250 μM) was “without altering”. Further, in the series with AP-1 (TauCl 500 μM), the “DNA-bonding activity of AP-1” value is listed as “decreases”. In addition, the “TauCl concentration at which cell viability (mitochondrial activity) is not altered” value with mouse T cells is 30 to 300 µM. Moreover, in the series with mouse T cells, the “TauCl concentration that is cytotoxic” value is 300 µM. Besides, the half-inhibitory concentration (IC50) was around 450 µM in the series on IL-8, around 225 µM with IL-6 and 550 µM in series [3]. In the series with E. Coli, the bactericidal activity result is “very low bactericidal activity”. Also, the “TNF-α and ROS generation” value with rat DCs ((TauCl)=250 μM) is on record as “not inhibited”. Further, in the series with rat DCs ((TauCl)=250 μM), the “production of IL-10, IL-12, PGE2 and nitric oxide” value is “inhibits”. For the same compound, in the series on rat DCs ((TauCl)=500 μM, two hours pre-incubated), the “release of ROS, nitric oxide, PGE2, TNF-α, IL-6, IL-10 and IL-12” value is recorded as “almost completely inhibits”. In addition, the viability preserved in [6] was at least 95%. Further, in the series on TNF-α, the “IC60, TNF-α transcriptional velocity” value was 400 µM. Besides, the “TauCl concentration above which cell viability decreases significantly” value with mouse dendritic cells was above 0.5 mM. In the series with T cells, the “release of IL-2 and IL-6” value was “inhibits”. The results for the Vmax of take-up with rat RAW264.7 cells (LPS-stimulated macrophages) and in the series on rat RAW264.7 cells (relaxed rat RAW264.7 cells) were 82.6 pmol/min/10^6 cells and 51.3 pmol/min/10^6 cells, respectively. Further, the Michaelis constant (Km) is 45.9 µM with rat RAW264.7 cells (LPS-stimulated macrophages) and 23.3 µM in the series with rat RAW264.7 cells (relaxed rat RAW264.7 cells). Moreover, the oxidative activity decrease result (physiological pH (7.4), 37° C.) is on record as “below 5 %/hour”. Moreover, the “TauCl concentration that alters cell viability” value in [7] is recorded as above 1 mM. The “concentration that does not alter viability or induce cytotoxicity or cell apoptose” value with human skin fibroblasts is at most 100 µM. Moreover, in the series on IL-1α, the “effect on IL-1α production” value is reported as “no effect”.

In the case of `OCl` [NaOCl, sodium hypochlorite], in the series on human fibroblasts [8], the NaOCl concentration at which cell morbidity is complete was 16.8 mM. The cells alive in the series on human fibroblasts [8] (67,165 μmol/l<(NaOCl)<671,655 μmol/l) is 100%. In addition, in the series on human fibroblasts [8] (FCS presence (2%)), the NaOCl concentration of highest efficiency in stimulating growth and cell proliferation was 33.6 µM. In the series with human fibroblasts [8] (FCS presence (2%), 24 hours of exposure), the NaOCl concentration at which viability is not altered and growth and proliferation are stimulated is below 672 µM. Also, the “NaOCl concentration at which cell viability is altered” value in the series with human fibroblasts [8] (observed for 24 hours after a 15-minute exposition) is ≥ 1,0075 mM. Besides, in the series on macrophages [9], the cells alive is reported as 95% and the “cells that keep their adherence to substrates” value is reported as 40%. Further, the “NaOCl concentration at which cell viability is highly altered (irreversible)” value in series [10] is listed as 1 mM. For the same compound, in [11] (levels below 5 g/l of available chlorine), the stability result was “under 2 weeks”. Further, the “stability of NaOCl oxidative activity” value in series [11] (pH value between 10 and 10.5 (EP 0471129 A1)) was “greater than 24 months”. The NaOCl stability entry in series [11] (temperature increased to 37° C.) is “below 24 hours”. In series [12], the “NaOCl concentration at which toxicity can be neutralized by an antioxidant addition” value is recorded as below 3.358 mM, the “NaOCl concentration at which toxicity is very low with an antioxidant presence” value is on record as below 1.679 mM and the “NaOCl concentration with high toxicity” value is above 6.7165 mM. Further, the “NaOCl concentration at which toxicity cannot be neutralized by antioxidants” value in series [12] (antioxidants at physiological concentrations) is given as 13.433 mM.

Consider `O=S(=O)([O-])CCNCl.[Na+]` [taurine N-chloramine sodium salt], for which, for the setting “aqueous solution, pH=8.3”, the “stability decrease in 15 days” value is “around 30%”, the “stability decrease in 65 days” value is listed as “around 61%” and the “stability decrease per day after the first 15 days” value is given as “around 0.71 % per day”.
